# Measured values as given in US9939427B2, “Method for evaluating the scent performance of perfumes or perfume mixtures” (Symrise AG, priority 2013, dated 2018).
# Molecular target: T1, OR10Q1 (Homo sapiens, UniProt Q8NGQ4)
# T1 construct: specific primers, which amplify the complete open reading frame; expressed in transfected cells; host or cells: HEK293
# T1 sequence (Q8NGQ4 1-319): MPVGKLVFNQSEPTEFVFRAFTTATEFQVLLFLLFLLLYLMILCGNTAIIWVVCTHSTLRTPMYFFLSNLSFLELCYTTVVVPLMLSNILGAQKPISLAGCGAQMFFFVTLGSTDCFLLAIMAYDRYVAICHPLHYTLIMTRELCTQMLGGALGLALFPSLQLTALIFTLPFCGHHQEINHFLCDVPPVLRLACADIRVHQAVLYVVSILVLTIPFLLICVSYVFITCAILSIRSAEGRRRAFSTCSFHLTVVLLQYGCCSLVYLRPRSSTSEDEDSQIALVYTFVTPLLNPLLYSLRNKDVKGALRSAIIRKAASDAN
# Assay: Ca-imaging of OR10Q1-transfected HEK293 cells
# Type: cell-based
# Parameters: key to OR10Q1 responded to odorant: ▪: 18 olfactory receptors responded to 32 odorants in related with specific anosmia
# Details: for Response of OR10Q1 to odorant, in words: single odorants 200 μM
# Procedure: HEK293 cells were cultivated in Petri dishes (Ø35 mm) as previously described (Benbernou et al. 2007). We grow up HEK293 cells in culture medium containing standard DMEM with 10% heat-inactivated fetal bovine serum, 2 mM L-glutamine, 100 units/ml penicillin, and 100 units/ml streptomycin in a humidified atmosphere (37° C., 5% CO2). After 2-3 days, the transfection process was carried out, whereby the cell culture was 70-80% confluent. The calciumphosphate method was applied to transfect DNA plasmid transiently in HEK293 cells in case of Ca-imaging method.
# Calcium cations and phosphate anions created crystal precipitations coupled with DNA which could invade into the cells through endocytosis. Cells were transiently transfected with plasmid DNA which consists of pCI expression vector and PCR-amplified full-length cDNA of olfactory receptors candidates, and also Gα15, RTP1, Myr-Ric8A, HSC70, and m-Cherry as cofactors. The precipitation could be created after 15-20 min, with dropping the transfection solution on HEK293 cells. Before measuring by Ca-imaging cells were incubated 48-60 hours at 370 C, 5% CO2. Cationic liposome-mediated transfection method was applied to transfect DNA plasmid transiently in HANA3A cells in case of CRE-Luciferase and CRE-SEAP assays.
# Calcium imaging of the transfected HEK293 cells was done by using chambers determinate an inverted microscope (Olympus; IX70) using a 10× objective (CPIanFL N Olympus). Fluorescence emission was determined every 4 s by using a CCD camera (Charge Coupled Device, C9100 Hamamatsu). The capillary tube which was responsible to supply odorants was generated closely above the cells. The columns filled with odorants, DMSO and ATP. Odorants were manually monitored to drop each 4-5 s to transfected cells. Solutions with drop wise form spread on HEK293 cells in 35 mm dishes.
# In experiments, Fura-2 Acetoxymethylester (Fura-2/AM) was applied. The non-polar Fura2/AM is fluorescent but not yet calcium-sensitive. Once diffuses into cell plasma, Fura-2/AM is hydrolyzed to Fura-2 which is calcium-sensitive and functions as Ca2+ chelator. Regardless of the presence of calcium, Fura-2 emits at the wavelength of 510 nm. Once Fura-2 binds to free intracellular Ca2+ in cell plasma, its ratio of excitation at wavelengths of 340 nm and 380 nm is changed and correlated to the amount of intracellular Ca2+. According to this feature, the analysis of 340/380 nm excitation ratio for Fura-2 allows to quantify intracellular calcium levels.
# In preparation for Ca-imaging measurements, transfected HEK293 cells were added 3 it Fura2/AM (3 μM) and incubated 30-45 min at 370 C, 5% CO2. After this step, experiments were carried out in a dark condition (Fura-2 is light-sensitive). After the incubation, medium of cell culture was replaced with 2 ml Ringer's solution.
# Odorants were freshly prepared with DMSO as 1 M stocks solutions. Six mixtures (200 μM each chemical) were applied to cells sequentially (20 s each mixture/30 s Ringer). Those ORs tested with single odorants that had generated a response to odorant mixture group previously. Odorants were prepared in 100-200 μM concentration.
# Ringer's solution was used for washing cells between measuring by two different odorants. Positive response was determined by the timing of the response, the strength of the response (more than twofold higher than the noise amplitude of the baseline), and the shape of the response curve (sharp rise in curve with gradual recovery). […]
compound,measurement,setting,value
"O=C1CCCCCCCCCCCCCCO1 [Pentadecanolide, ω-cyclopentadecanolide]",OR10Q1 responded to odorant,"Ca-imaging, HEK293 cells, individual odorant 200 μM, significant response p<0.05",▪
same,"Response of OR10Q1 to odorant, in words",Ca-imaging,responded
same,"Response of OR10Q1 to odorant, in words","Ca-imaging, listed as Cyclopentadecanolide",significantly responded
same,"Response of OR10Q1 to odorant, in words","Ca-imaging, listed as Pentadecalactone",responded
same,"Number of cell responses, Experiment (OR10Q1)","odorant 200 μM, approximately 2000 transfected cells in three times of measuring (Table 4, FIG. 5)",52
